From patent US8829027B2, “Urea derivatives of substituted nortropanes, medicaments containing such compounds and their use” (Boehringer Ingelheim International GmbH, priority 2008, dated 2014)

biological target: T1, 11β-HSD1 (Homo sapiens, UniProt P28845); test: In vitro inhibition of 11β-HSD1, HTRF detection of cortisol generated from cortisone by human liver microsomes; format: biochemical; conditions: compound concentration 1 μM, 100% indicates no inhibition, zero or below zero indicates complete inhibition
T1 construct: detecting cortisol generated from cortisterone by human liver microsomes; from tissue; host or cells: human liver microsomes
T1 sequence (P28845 whole entry): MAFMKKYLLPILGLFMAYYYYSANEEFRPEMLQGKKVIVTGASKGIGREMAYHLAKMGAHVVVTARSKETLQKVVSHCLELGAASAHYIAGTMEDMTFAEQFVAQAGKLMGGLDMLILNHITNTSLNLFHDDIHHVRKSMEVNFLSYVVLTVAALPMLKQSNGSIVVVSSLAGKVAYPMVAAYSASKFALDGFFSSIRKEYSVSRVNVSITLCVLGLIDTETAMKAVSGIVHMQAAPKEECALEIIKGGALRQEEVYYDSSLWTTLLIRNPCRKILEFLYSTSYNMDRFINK
Method: Briefly, compounds are incubated for 1 hour at 37° C. in Tris buffer (20 mM tris, 5 mM EDTA, pH 6.0) containing NADPH (200 μM) and cortisone (80 nM). Cortisol generated in the reaction is then detected with a competitive immunoassay, involving two HTRF conjugates: cortisol linked to XL665 and anti-cortisol antibody labeled with Europium cryptate. The incubation period for detection reaction is typically 2 hours. The amount of cortisol is determined by reading the time-resolved fluorescence of the wells (Ex 320/75 nm; Em 615/8.5 nm and 665/7.5 nm). The ratio of the two emission signals is then calculated (Em665*10000/Em615). […] Each assay also contains a calibration curve with cortisol to transform the fluorescent data into cortisol concentrations. Percent inhibition (% CTL) of each compound is determined relative to the carbenoxolone signal and IC50 curves are generated.
The % CTL values of some example compounds at a concentration of 1 μM are provided in the following Table 2 wherein 100% indicates no inhibition and a value of zero or below zero indicates complete inhibition. The measurement of % CTL is described hereinbefore.

Row | Structure (SMILES) | 11β-HSD1 remaining activity (% of control)
1 | O=C(N1C2CCC1CC(O)(C(F)(F)F)C2)N1[C@@H]2CC[C@H]1C[C@@H](c1ccc(F)cc1)C2 (stereo partly drawn) [Example 17, endo-[3-(4-Fluoro-phenyl)-8-aza-bicyclo[3.2.1]oct-8-yl]-(3-hydroxy-3-trifluoromethyl-8-aza-bicyclo[3.2.1]oct-8-yl)-methanone] | −11 % CTL
2 | COC(=O)C1CCN(C(=O)N2[C@@H]3CC[C@H]2C[C@@H](c2ccc(F)cc2)C3)CC1 [Example 15, endo-1-[3-(4-Fluoro-phenyl)-8-aza-bicyclo[3.2.1]octane-8-carbonyl]-piperidine-4-carboxylic acid methyl ester] | 20 % CTL
3 | O=C(N1CCc2sccc2C1)N1[C@@H]2CC[C@H]1C[C@@H](c1ccc(F)cc1)C2 [Example 7, endo-(6,7-Dihydro-4H-thieno[3,2-c]pyridin-5-yl)-[3-(4-fluoro-phenyl)-8-aza-bicyclo[3.2.1]oct-8-yl]-methanone] | −57 % CTL
4 | O=C(O)C1CCN(C(=O)N2[C@@H]3CC[C@H]2C[C@@H](c2ccc(F)cc2)C3)CC1 [Example 11, endo-1-[3-(4-Fluoro-phenyl)-8-aza-bicyclo[3.2.1]octane-8-carbonyl]-piperidine-4-carboxylic acid] | 4 % CTL
5 | O=C(N1CCc2nc[nH]c2C1)N1[C@@H]2CC[C@H]1C[C@@H](c1ccc(F)cc1)C2 [Example 6, endo-[3-(4-Fluoro-phenyl)-8-aza-bicyclo[3.2.1]oct-8-yl]-(3,4,6,7-tetrahydro-imidazo[4,5-c]pyridin-5-yl)-methanone] | 65 % CTL
6 | CC(C)(O)C1CCN(C(=O)N2[C@@H]3CC[C@H]2C[C@@H](c2ccc(F)cc2)C3)CC1 [Example 22, endo-[3-(4-Fluoro-phenyl)-8-aza-bicyclo[3.2.1]oct-8-yl]-[4-(1-hydroxy-1-methyl-ethyl)-piperidin-1-yl]-methanone] | −18 % CTL
7 | O=C(N1CCC(O)(C(F)(F)F)CC1)N1[C@@H]2CC[C@H]1C[C@@H](c1ccc(F)cc1)C2 [Example 14, endo-[3-(4-Fluoro-phenyl)-8-aza-bicyclo[3.2.1]oct-8-yl]-(4-hydroxy-4-trifluoromethyl-piperidin-1-yl)-methanone] | −30 % CTL
8 | O=C(N1CCCC2(CCNC2=O)C1)N1[C@@H]2CC[C@H]1C[C@@H](c1ccc(F)cc1)C2 (stereo partly drawn) [Example 19, endo-7-[3-(4-Fluoro-phenyl)-8-aza-bicyclo[3.2.1]octane-8-carbonyl]-2,7-diaza-spiro[4.5]decan-1-one] | 34 % CTL
9 | O=C(N1CCC(O)CC1)N1[C@@H]2CC[C@H]1C[C@@H](c1ccc(F)cc1)C2 [Example 5, endo-[3-(4-Fluoro-phenyl)-8-aza-bicyclo[3.2.1]oct-8-yl]-(4-hydroxy-piperidin-1-yl)-methanone] | −46 % CTL
10 | O=C(N1CCCC1)N1[C@@H]2CC[C@H]1C[C@@H](c1ccc(F)cc1)C2 [Example 2, endo-[3-(4-Fluoro-phenyl)-8-aza-bicyclo[3.2.1]oct-8-yl]-pyrrolidin-1-yl-methanone] | −3 % CTL
11 | COC1CCN(C(=O)N2[C@@H]3CC[C@H]2C[C@@H](c2ccc(F)cc2)C3)CC1 [Example 13, endo-[3-(4-Fluoro-phenyl)-8-aza-bicyclo[3.2.1]oct-8-yl]-(4-methoxy-piperidin-1-yl)-methanone] | −25 % CTL
12 | O=C(N1[C@@H]2CC[C@H]1C[C@@H](O)C2)N1[C@@H]2CC[C@H]1C[C@@H](c1ccc(F)cc1)C2 [Example 8, [endo-3-(4-Fluoro-phenyl)-8-aza-bicyclo[3.2.1]oct-8-yl]-(endo-3-hydroxy-8-aza-bicyclo[3.2.1]oct-8-yl)-methanone] | −59 % CTL
13 | O=C(N1CCOCC1)N1[C@@H]2CC[C@H]1C[C@@H](c1ccc(F)cc1)C2 [Example 3, endo-[3-(4-Fluoro-phenyl)-8-aza-bicyclo[3.2.1]oct-8-yl]-morpholin-4-yl-methanone] | −29 % CTL
14 | CC1(O)CCN(C(=O)N2[C@@H]3CC[C@H]2C[C@@H](c2ccc(F)cc2)C3)CC1 [Example 16, endo-[3-(4-Fluoro-phenyl)-8-aza-bicyclo[3.2.1]oct-8-yl]-(4-hydroxy-4-methyl-piperidin-1-yl)-methanone] | −23 % CTL
15 | O=C(N1CCCC2(CCCNC2=O)C1)N1[C@@H]2CC[C@H]1C[C@@H](c1ccc(F)cc1)C2 (stereo partly drawn) [Example 18, endo-8-[3-(4-Fluoro-phenyl)-8-aza-bicyclo[3.2.1]octane-8-carbonyl]-2,8-diaza-spiro[5.5]undecan-1-one] | 62 % CTL
16 | N#CC1CCN(C(=O)N2[C@@H]3CC[C@H]2C[C@@H](c2ccc(F)cc2)C3)CC1 [Example 12, endo-1-[3-(4-Fluoro-phenyl)-8-aza-bicyclo[3.2.1]octane-8-carbonyl]-piperidine-4-carbonitrile] | −27 % CTL
17 | O=C(N1CCCCC1)N1[C@@H]2CC[C@H]1C[C@@H](c1ccc(F)cc1)C2 [Example 1, endo-[3-(4-Fluoro-phenyl)-8-aza-bicyclo[3.2.1]oct-8-yl]-piperidin-1-yl-methanone] | −49 % CTL
18 | O=C(N1CCCC(CO)C1)N1[C@@H]2CC[C@H]1C[C@@H](c1ccc(F)cc1)C2 (stereo partly drawn) [Example 20, endo-[3-(4-Fluoro-phenyl)-8-aza-bicyclo[3.2.1]oct-8-yl]-(3-hydroxymethyl-piperidin-1-yl)-methanone] | −17 % CTL
19 | CC(=O)NC1CCN(C(=O)N2[C@@H]3CC[C@H]2C[C@@H](c2ccc(F)cc2)C3)CC1 [Example 4, endo-N-{1-[3-(4-Fluoro-phenyl)-8-aza-bicyclo[3.2.1]octane-8-carbonyl]-piperidin-4-yl}-acetamide] | 46 % CTL
20 | O=C(N1CCC(CO)CC1)N1[C@@H]2CC[C@H]1C[C@@H](c1ccc(F)cc1)C2 [Example 21, endo-[3-(4-Fluoro-phenyl)-8-aza-bicyclo[3.2.1]oct-8-yl]-(4-hydroxymethyl-piperidin-1-yl)-methanone] | −20 % CTL
21 | NC(=O)C1CCN(C(=O)N2[C@@H]3CC[C@H]2C[C@@H](c2ccc(F)cc2)C3)CC1 [Example 9, endo-1-[3-(4-Fluoro-phenyl)-8-aza-bicyclo[3.2.1]octane-8-carbonyl]-piperidine-4-carboxylic acid amide] | −49 % CTL
